Assay: Solubility of celecoxib in PEG-400/water
Format: physicochemical
Conditions: 2:1 mixture of PEG-400 and water
Experimental: Water-miscible, nonvolatile liquids such as polyethylene glycols have been successfully used in encapsulated solution formulations. Moreover, polyethylene glycols are also good solvents for drugs of low water solubility because they are known to improve aqueous drug solubility. For example, celecoxib, which has very low solubility in water, is highly soluble (>300 mg/g) in a 2:1 mixture of PEG-400 and water.

- solubility: > 300 mg/g
Compound: Cc1ccc(-c2cc(C(F)(F)F)nn2-c2ccc(S(N)(=O)=O)cc2)cc1 [celecoxib, 4-[5-(4-methylphenyl)-3-(trifluoromethyl)-1H-pyrazol-1-yl]benzenesulfonamide]

Reference: patent publication US20030105144A1, “Stabilized oral pharmaceutical composition” (priority 2001, published 2003)
